Where “and” joins values, the source holds several entries; their conditions need not be identical. Equal values may be shown once.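 Each compound was tested at five concentrations against cells in 96-well plates for 48 hours. GI50 marks 50% less growth. Definition used: TGI = concentration required for complete inhibition of growth.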
Columns and labels:
Assay in all cases: NCI anticancer screen, dose series, 48 h
[1] = tested on: 786-0 renal
[2] = tested on: SF-268 CNS
[3] = tested on: BT-549 breast
[4] = tested on: KM12 colon
[5] = tested on: PC-3 prostate
[6] = tested on: NCI-H460 lung
[7] = tested on: LXFL 529 NSCLC
[8] = tested on: M19-MEL melanoma
[9] = tested on: SF-539 CNS
[10] = tested on: HOP-92 NSCLC

SMILES | TGI [1] [µM] | TGI [2] | TGI [3] [µM] | TGI [4] | TGI [5] [µM] | TGI [6] | TGI [7] [µM] | TGI [8] | TGI [9] | TGI [10] [µM] | GI50 [1] [µM] | GI50 [2] | GI50 [4] | GI50 [6] | GI50 [10] | GI50 [7] [µM] | GI50 [8] | GI50 [9] [µM]
O=C(NC(=O)c1ccccc1[N+](=O)[O-])Nc1ccc(Oc2ncc(Cl)cn2)c([N+](=O)[O-])c1 | > 100 | > 100 µM | > 100 | > 66.3 µM | > 100 | > 100 µM | > 100 | > 100 µM | 8.38 µM |  |  |  |  |  |  |  |  | 
O=C(O)C(C(=O)O)P(=S)(S)c1ccccc1 (configuration not stated) | > 100 | > 100 µM | > 100 | > 100 µM | > 100 | > 100 µM | > 100 | > 100 µM | > 100 µM | > 100 |  |  |  |  |  |  |  | 
O=c1c2ccccc2nc(/C=C(\O)c2ccncc2)n1-c1ccc(Cl)cc1 | > 100 | > 100 µM |  | > 100 µM |  | > 100 µM | > 100 | > 100 µM |  | > 100 |  |  |  |  |  |  |  | 
CCOC(=O)C(N=C(c1ccccc1)c1ccccc1)N(C(=O)OC(C)(C)C)C(=O)OC(C)(C)C (configuration not stated) | > 100 | > 100 µM |  | > 100 µM |  |  | > 100 | > 100 µM | > 100 µM | 66.6 |  |  |  |  |  |  |  | 
O=C(NCc1cccnc1)C1COc2cc(-c3cc(=O)c4ccccc4o3)ccc2O1 (configuration not stated) | > 81.7 | > 55.2 µM |  | > 100 µM |  | > 100 µM | > 100 | > 100 µM | 16.4 µM | > 100 |  |  |  |  |  |  |  | 
Cc1cc(C)n(-c2ccnc3cc(Cl)ccc23)n1 | > 100 | > 100 µM |  | > 100 µM |  | > 100 µM | > 100 | > 100 µM | > 100 µM | > 100 |  |  |  |  |  |  |  | 
COC(=O)c1ccccc1N1C(=O)Cc2ccccc2C1=O | > 100 | > 100 µM |  | > 100 µM |  |  | > 100 | > 100 µM | > 100 µM |  |  |  |  |  |  |  |  | 
C/C(CC(=O)Nc1cc(C)ccc1C)=N/N=C(N)N | > 100 | > 100 µM |  | > 100 µM |  | > 100 µM | > 100 | > 100 µM | > 100 µM | > 100 |  |  |  |  |  |  |  | 
CC1(Br)CC2OC3(Br)C=CC(C)(O)C2(CC1=O)C3(C)C (configuration not stated) | > 100 | > 100 µM |  | > 100 µM |  | > 100 µM | > 100 |  | > 100 µM | > 100 |  |  |  |  |  |  |  | 
O=C1[C@@H]2C(c3ccccc3[N+](=O)[O-])=[N+](c3ccccc3)O[C@@H]2C(=O)N1c1ccc(Cc2ccc(N3C(=O)[C@H]4C(c5ccccc5[N+](=O)[O-])=[N+](c5ccccc5)O[C@H]4C3=O)cc2)cc1 | > 100 | > 100 µM |  | > 100 µM |  | > 100 µM | > 100 | > 100 µM | > 100 µM | > 100 |  |  |  |  |  |  |  | 
O=C(c1ccccc1)C(c1ccccc1)C1(O)C(=O)Nc2ccc([N+](=O)[O-])cc21 (configuration not stated) | > 100 | > 100 µM |  |  |  | > 100 µM | > 100 | 72.2 µM | > 100 µM | > 100 |  |  |  |  |  |  |  | 
CCC(O)C1Cc2c(C)cc3c(c2O1)C(=O)c1ccccc1C3=O (configuration not stated) | 62.7 | > 100 µM |  | > 100 µM |  | > 100 µM | > 100 | > 100 µM |  | 97.1 |  |  |  |  |  |  |  | 
O=C(O)COc1ccc(C(=O)/C(SS/C(C(=O)c2ccc(OCC(=O)O)c(Cl)c2Cl)=C2\C=C(c3ccc(Cl)cc3)SS2)=C2/C=C(c3ccc(Cl)cc3)SS2)c(Cl)c1Cl | 26.3 | 27.6 µM |  | 54.6 µM |  | 35.6 µM | 14.4 | 20.6 µM | 17.9 µM | 17.9 |  |  |  |  |  |  |  | 
N#CCCCCCOCCOCCOCCOCCOCCCCCC#N | > 100 | > 100 µM |  | > 100 µM |  | > 100 µM | > 100 | > 100 µM |  |  |  |  |  |  |  |  |  | 
COc1ccc(NC(=O)CC/C(CC(=O)c2ccco2)=N/NC(N)=S)cc1 | > 100 | > 100 µM |  | > 100 µM |  | > 100 µM | > 100 | > 100 µM | > 100 µM | > 100 |  |  |  |  |  |  |  | 
NC1CCCCC1N.O=[Se]([O-])[O-].[Pt+4] (configuration not stated) | 20.3 | > 76.8 µM |  | > 100 µM |  | 5.15 µM | > 100 | 15.5 µM | 20.6 µM | 82.1 | 0.0552 | 0.549 µM | 2.51 µM | 0.205 µM | 25.3 µM | 6.25 | 0.412 µM | 1.18
CCCCNC(=O)C1C(=O)N(CCCC)C(=O)/C1=N\N (configuration not stated) | > 100 | > 100 µM |  | > 100 µM |  | > 100 µM | > 100 | > 100 µM | > 100 µM | > 100 |  |  |  |  |  |  |  | 
Nc1nc(Cl)cc(NCC(O)CO)n1 (configuration not stated) | > 100 | > 100 µM |  | > 100 µM |  | > 100 µM | > 100 | > 100 µM | > 100 µM | > 100 |  |  |  |  |  |  |  | 
O=C1NC2C(=CC(O)C(O)C2O)c2cc3c(cc21)OCO3 (configuration not stated) | 4.93 | 3.37 µM and 3.58 µM |  | 1.75 µM and 3.53 µM | 2.08 | 2.01 µM and 1.3 µM | 3.66 | 1.72 µM and 1.53 µM | 1.41 µM and 1.85 µM |  | 0.544 | 0.354 µM and 0.337 µM | 0.336 µM and 0.129 µM | 0.251 µM and 0.147 µM | 0.116 µM and 0.171 µM | 0.313 | 0.353 µM and 0.282 µM | 0.237
O=[N+]([O-])c1ccc(C2=Nn3c(nnc3-c3ccc(Cl)cc3)SC2)o1 | 23 | 30.2 µM | 23.9 | 27.6 µM | 18.4 | 17.7 µM | 14.1 | 7.95 µM | 20.5 µM | 8.31 |  |  |  |  |  |  |  | 
CCCNCC(=O)O[C@]1(CC)C(=O)OCc2c1cc1n(c2=O)Cc2cc3ccccc3nc2-1 | 0.117 | 2.46 µM |  | 8.05 µM |  | 0.154 µM | 67.6 | 1.96 µM | 0.136 µM | 3.6 |  |  |  |  |  |  |  | 
CC[C@@]1(O)C(=O)OCc2c1cc1n(c2=O)Cc2cc3cccc([N+](=O)[O-])c3nc2-1 | 1.29 | > 100 µM |  | 35.6 µM |  | 1.51 µM | > 100 |  | 2.89 µM | 50.8 | 0.3 | 0.794 µM | 4.82 µM | 0.0671 µM | 8.45 µM | 14.2 |  | 0.478
C(=N\Nc1ccccc1)/c1nc2ccccc2nc1/C=N/Nc1ccccc1 | 29.5 | 29.3 µM |  | 41 µM |  | 29 µM | 23 | 41.1 µM | 30.8 µM | 33.2 |  |  |  |  |  |  |  | 
